Laboratory results: US20130041022A1, “Glyceollins Suppress Androgen-Responsive Prostate Cancer” (UNITED STATES DEPARTMENT OF AGRICULTURE, priority 2008, published 2013)

Legend:
Type in all cases: cell-based, human
CDKN1B mRNA = assay: RT-PCR CDKN1B mRNA in LNCaP cells; conditions: 48 hours treatment, 0-25 μM
Procedure: LNCaP cells cultured in 10% FBS were treated with 0, 2.5, 12.5, or 25 μM glyceollins for 48 h, total RNA isolated and mRNA levels of CDKN1A determined as described below. Results are expressed as mean+/−SD (n=3).
(§1) Determination of the effects of glyceollins on gene expression in LNCaP cells using RT-PCR. To examine the effects of glyceollins on cyclin inhibitor CDKN1A and B mRNA expression, LNCaP cells were plated in 6-well plates (0.25×10^6 cells/well) in Media A. After twenty-four hours the medium was removed and replaced with fresh medium containing vehicle, 1, 5, or 25 μM glyceollins or genistein. For experiments examining the effects of glyceollins on steroid hormone, LNCaP cells were plated in 6-well plates (0.25×10^6 cells/well) in Media A and switched to Media B containing 10% CDS 24 h after plating to minimize the effect of serum hormones. Twenty-four hours later, the medium was replaced with fresh medium containing 1 nM DHT or 17β-estradiol with or without 0-25 μM glyceollin. For all experiments fresh medium containing the test compounds was changed daily and cells were harvested for total RNA isolation using the Trizol method (Invitrogen) after 48 h. Taqman real-time PCR was used to quantify expression of the mRNA. […]

PC-3 cells = assay: Cell cycle analysis using flow cytometry (PI), PC-3; conditions: 25 μM, 72 hours
Procedure: PC-3 cells (3×10^6 cells) were plated in T-175 flask and treated with or without 25 μM of glyceollins or genistein for 72 hr, cell cycle analysis performed as described below. Results are expressed as % of total cells (n=3).
(§2) Cell cycle analysis using flow cytometry. LNCaP or PC3 cells (3×10^6 cells) were seeded into T-175 flask in Medium A. Twenty-four hours later the medium was changed to that containing vehicle or test compounds. […] The cellular DNA was then analyzed by flow cytometry. DNA content of the cells was determined through flow cytometry using a FACScalibur cytometer (Becton Dickinson, San Jose, Calif.). Flow cytometric data files were collected and analyzed using the CELLQuest program (Becton Dickinson). […] Cell cycle distribution percentages of stained nuclei were calculated using Modfit LT software (Version 3.0, Verity Software House, Inc., Topsham, Me.). […]

CDKN1A mRNA = assay: RT-PCR CDKN1A mRNA in LNCaP cells; conditions: 48 hours treatment, 10% FBS
Procedure: LNCaP cells cultured in 10% FBS were treated with 0, 2.5, 12.5, or 25 μM glyceollins for 48 h, total RNA isolated and mRNA levels of CDKN1A determined as described below. Results are expressed as mean +/−SD (n=3).
LNCaP cells cultured in 10% FBS were treated with 0, 1, 5, 12.5 or 25 μM genistein for 48 h, total RNA isolated and mRNA levels of CDKN1A determined as described below. Results are expressed as mean+/−SD (n=3).
as §1, with “For all experiments fresh medium containing the test compounds was changed daily and cells were harvested for total RNA isolation using the Trizol method (Invitrogen) after 48 h.” left out

LNCaP cells = assay: Cell cycle analysis using flow cytometry (PI), LNCaP; conditions: 72 hours; glyceollins 0-25 μM, genistein 25 μM
Procedure: LNCaP cells (3×10^6 cell) were plated in T-175 flask and treated with 0, 0.25, 2.5, 12.5, or 25 μM glyceollins or with and without genistein (25 μM) for 72 hr, cell cycle analysis performed as described below. Results are expressed as % of total cells (n=3).
as §2

O=c1c(-c2ccc(O)cc2)coc2cc(O)cc(O)c12 [genistein]
effect on CDKN1B mRNA levels in LNCaP cells (CDKN1B mRNA): no changes
G2/M blockage in PC-3 cells (PC-3 cells): lead to G2/M blockage
concentration at which significant change/induction of CDKN1A mRNA is observed (CDKN1A mRNA): 25 µM
effect on cell cycle progression in LNCaP cells (LNCaP cells): G1/G0 arrest
